Values quoted from earlier work, collected in patent publication US20240050514A1, “USE OF COMPOUND, PHARMACEUTICAL COMPOSITION FOR THE TREATMENT OF IMMUNE OR METABOLIC DISORDERS, PHARMACEUTICAL COMPOSITION FOR THE TREATMENT OF ILLNESSES CAUSED BY OR ASSOCIATED WITH VIRUSES” (PROTEIMAX BIOTECNOLOGIA LTDA., priority 2021, published 2024).

Columns and labels:
[1] = in vivo
[2] = test system: rats
[3] = target: ACE (Homo sapiens, UniProt P12821); details: read-out: inhibition constant Ki
Sequence of ACE (P12821 30-1306, species assumed): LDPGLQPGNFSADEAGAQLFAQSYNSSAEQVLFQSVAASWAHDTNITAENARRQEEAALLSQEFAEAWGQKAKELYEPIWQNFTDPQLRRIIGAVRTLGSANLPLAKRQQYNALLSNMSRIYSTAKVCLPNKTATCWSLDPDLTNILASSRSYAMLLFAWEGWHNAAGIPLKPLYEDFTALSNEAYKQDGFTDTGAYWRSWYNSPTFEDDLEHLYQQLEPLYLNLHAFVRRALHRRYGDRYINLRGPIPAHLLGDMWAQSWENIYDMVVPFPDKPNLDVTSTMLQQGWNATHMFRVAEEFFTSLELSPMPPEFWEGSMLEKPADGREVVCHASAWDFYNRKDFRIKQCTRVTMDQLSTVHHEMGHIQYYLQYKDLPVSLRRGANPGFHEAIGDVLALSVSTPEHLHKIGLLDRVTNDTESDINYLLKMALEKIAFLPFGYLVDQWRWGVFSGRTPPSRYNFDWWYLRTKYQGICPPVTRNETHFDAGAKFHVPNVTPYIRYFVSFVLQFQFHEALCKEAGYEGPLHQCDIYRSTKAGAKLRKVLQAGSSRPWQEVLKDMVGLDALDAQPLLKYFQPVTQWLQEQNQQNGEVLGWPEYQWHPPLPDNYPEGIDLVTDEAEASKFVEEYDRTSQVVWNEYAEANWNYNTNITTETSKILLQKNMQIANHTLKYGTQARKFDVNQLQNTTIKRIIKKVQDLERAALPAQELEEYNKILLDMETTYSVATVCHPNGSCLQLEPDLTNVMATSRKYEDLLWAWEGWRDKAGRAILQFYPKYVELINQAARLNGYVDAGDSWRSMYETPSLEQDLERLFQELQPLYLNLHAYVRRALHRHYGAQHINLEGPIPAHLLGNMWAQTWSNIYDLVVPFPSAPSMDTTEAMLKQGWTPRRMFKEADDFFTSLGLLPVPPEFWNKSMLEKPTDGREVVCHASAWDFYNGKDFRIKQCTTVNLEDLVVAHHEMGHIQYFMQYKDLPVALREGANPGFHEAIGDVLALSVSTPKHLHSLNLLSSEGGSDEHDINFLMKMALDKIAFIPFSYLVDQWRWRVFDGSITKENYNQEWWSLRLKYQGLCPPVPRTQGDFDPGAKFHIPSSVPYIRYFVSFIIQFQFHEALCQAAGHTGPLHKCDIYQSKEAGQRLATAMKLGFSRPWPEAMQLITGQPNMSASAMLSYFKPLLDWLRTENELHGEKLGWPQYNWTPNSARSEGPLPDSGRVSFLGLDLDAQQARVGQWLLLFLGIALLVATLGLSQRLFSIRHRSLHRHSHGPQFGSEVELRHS

## CC(C)C[C@H](NC(=O)[C@H](Cc1ccccc1)NC(=O)[C@H](CCCCN)NC(=O)[C@H](Cc1ccccc1)NC(=O)[C@H](CC(N)=O)NC(=O)[C@@H](NC(=O)[C@@H]1CCCN1)C(C)C)C(=O)N[C@@H](CO)C(=O)N[C@@H](Cc1cnc[nH]1)C(=O)O [hemopressin, PVNFKFLSH]
[1]
  crossing of the blood-brain barrier: does not cross the blood-brain barrier
[2]
  basal levels of monoamine in the prefrontal cortex: reduction in the basal levels of monoamine in the prefrontal cortex
  behavior after administration: induced anxiogenic and depressive behavior
[3]
  Ki: 1870 µM
